Reference: patent US12599592B2, “Therapeutic small molecules for treatment of pulmonary hypertension” (UNIVERSITY OF PITTSBURGH—OF THE COMMONWEALTH SYSTEM OF …, priority 2020, dated 2026)
Where a SMILES comes first, the peptide text is derived from it. The star is where a group is joined. Cbz = O=C(OCc1ccccc1)*

Assays:
[1] = target: glutathione S-transferase pi 1 (GSTP1) (Homo sapiens, UniProt P09211); settings: literature report; cited from earlier work
[2] = tested on: normal, non-transformed cells; liver and kidney; settings: literature report; cited from earlier work
glutathionylated ISCU = assay: ISCU glutathionylation by immunoprecipitation and immunoblot in PAECs; assay type: cell-based, human; settings: hypoxic PAECs, MG132 5 mM, 2 h
Method: (§1) Protein stability assay: The proteasome inhibitor MG132 (M7449, Sigma) was stored at −20° C. at a concentration of 10 mM diluted in dimethyl sulfoxide (DMSO). PAECs were exposed to MG132 ([…]) vs. DMSO vehicle control for 2 hr under hypoxia, prior to harvesting of cellular lysate for immunoblotting.
Immunoblot and densitometry: Cells were lysed in RIPA buffer (Sigma) along with 1× protease inhibitor cocktail (Sigma). Protein lysate was resolved by gradient 4%-15% SDS-PAGE gels and transferred onto a 0.2 μm PVDF membrane (Bio-Rad). Membranes were blocked in 5% non-fat milk in 1×PBST buffer for one hour at room temperature. Later, they were incubated in the presence of the primary antibody overnight at 4° C. and then appropriate HRP-conjugated secondary antibodies (Life Technologies). […] The images were later quantified using AlphaEaseFC software (Alpha Innotech).
Immunoprecipitation: PAECs were transfected with the indicated combinations of siRNAs by Lipofectamine 2000 (Thermo Fisher Scientific) according to the manufacturer's instructions and/or treated with BRD2889 ([…], 24 h). […] After extensive washing, the immunoprecipitated proteins were analyzed by immunoblotting with the indicated antibodies.

ISCU = assay: Immunoblot of ISCU and GSTP1 in PAECs; assay type: cell-based, human; settings: hypoxic PAECs, MG132 5 mM, 2 h
Method: (§2) For hypoxia exposure, cells were plated in 6-well cell culture plates at 1×10^5 cells/well, grown for 24 hr and placed into a normobaric hypoxia chamber (1% O2) for 24 h under specific treatment conditions. Namely, for I-BET and siLGALS8 exposures, cells were either pre-treated with I-BET/vehicle control (VC) or transfected with siLgals8/Scr for 24 h. Then, they were cultured in basal media at 1% 02. After 24 h, caspase activity and mitochondrial superoxide levels were quantified. To detect activation status of pSTAT1/STAT1 by immunoblot, cells were exposed to 8 h of hypoxia.
(§3) In IL-6/sIL-6R+hypoxia experiments, a human recombinant IL-6/IL-6R alpha protein chimera (25 ng/ml, Millipore) was administered at 70-80% confluency for 48 h in complete media along with vehicle control (DMSO, Sigma-41639). BRD2889 (1 uM) vs. vehicle control were added, as indicated, and placed into a hypoxia chamber for 24 h. The hypoxia chamber (modular incubator chamber) was obtained from Billups-Rothenberg Inc. (Del Mar, Calif) and placed in regulated CO2 incubator at 37° C.
as §1
(§4) Immunoblot and densitometry: Cells were lysed in RIPA buffer (Sigma) along with 1× protease inhibitor cocktail (Sigma). Protein lysate was resolved by gradient 4%-15% SDS-PAGE gels and transferred onto a 0.2 μm PVDF membrane (Bio-Rad). Membranes were blocked in 5% non-fat milk in 1×PBST buffer for one hour at room temperature. Later, they were incubated in the presence of the primary antibody overnight at 4° C. and then appropriate HRP-conjugated secondary antibodies (Life Technologies). The following antibodies were used: human LGALS8 (AF1305, RnD Systems), mouse/rat Lgals8 (ab69631, Abcam), pSTAT1 (ab29045, Abcam) and STAT1 (ab47425, Abcam), GSTP1 (ab153949, Abcam), ISCU (14812-1-AP, Prointech), Glutathione (ab19534, Abcam), HIF2A (NB100-122, Novous), α-Tubulin (CP06, Millipore sigma), and ACTB (sc-47778, Santa Cruz). The immunoreactive bands were visualized with the Chemidoc XRS+system (Bio-Rad) using SuperSignal West Femto chemiluminescent substrates (Thermo Fisher Scientific). The images were later quantified using AlphaEaseFC software (Alpha Innotech).

chronically hypoxic mice = assay: Hypoxia-induced pulmonary hypertension mouse model
Excerpt: Animal models: For the hypoxia-induced pulmonary hypertension mice, male C57BL/6J mice (8 weeks old) (RRID:IMSR_JAX:000664) were purchased from Jackson laboratory and acclimatized for 3-4 days in this facility. Subsequently, mice scheduled for normoxic vs. hypoxic exposure were maintained in either normoxia or a normobaric hypoxia chamber for 1 or 3 weeks (OxyCycler, Biospherix Ltd.), where consistent exposure to 10% oxygen and control for temperature and humidity were possible. For testing the activity of I-BET in hypoxia-induced pulmonary hypertension mice, three experimental groups—normoxia+VC (vehicle control), hypoxia+VC (vehicle control), and hypoxia+I-BET were used.
I-BET was dissolved in DMSO at 100× concentration and then made into a working solution in 20% PEG400 and 80% 1×PBS. BRD2889 was made into a working solution of 2.5% DMSO.
Male and female 8 week old Lgals8−/− mice were exposed to hypoxia for 3 weeks. Littermates were used as wildtype (WT) control when comparing with knockout mice.
Immunofluorescent staining: Cryostat sections were cut from OCT-embedded lung tissues at 5-10 μm and mounted on gelatin-coated histological slides. Slides were thawed at room temperature for 10-20 min and rehydrated in wash buffer for 10 minutes. All sections were blocked in 10% donkey serum and exposed to primary antibody and Alexa 488, 568 and 647-conjugated secondary antibodies (Thermo Fisher Scientific). The following primary antibodies were used: Lgals8 (Ab69631, Abcam; 1/200), IL-1β (ab9722, Abcam; 1/200), GSTP1 (ab153949, Abcam; 1:100), ISCU (14812-1-AP, Proteintech; 1:100), cleaved caspase 3 (cs-9661, Cell Signaling; 1/400), α-SMA (F3777, Sigma; 1/200) and CD31 (ab7388, Abcam; 1/200). Images were obtained using Nikon A1 confocal microscope with 40× objective. Small pulmonary vessels (10 vessels/section) that were not associated with bronchial airways were selected for analysis. Intensity of staining was quantified using ImageJ software (NIH). Degree of pulmonary arteriolar muscularization was assessed in OCT lung sections stained for α-SMA by calculation of the proportion of fully and partially muscularized peripheral (<100 μm diameter) pulmonary arteriole to total peripheral pulmonary arterioles (Bertero T et al. J Clin Invest. 2014, 124, 3514-3528).

LGALS8 = assay: Immunoblot and densitometry of LGALS8 isoforms in PAECs; assay type: cell-based, human; settings: PAECs + IL-1β
Method: (§5) Human recombinant galectin-8 (1305-GA-050) was purchased from R&D Systems and was used at a working concentration of 30 nM.
as §4

PAECs [3] = assay: Mitochondrial superoxide by MitoSOX Red flow cytometry in PAECs; assay type: cell-based, human
Excerpt: (§6) Cell culture: Primary human pulmonary artery endothelial cells (PAECs) and human pulmonary artery smooth muscle cells (PASMCs) were purchased from Lonza (302-05A, CC-2581). Of note, the same two male donors were the source of all PAECs in the experiments shown. Two additional male donors were the source for all PASMCs in the experiments shown. Cells from these and any donors were characterized by flow cytometry for consistent expression of cell surface markers and by RNA (RT-qPCR) analysis of endothelial and smooth muscle gene expression. PAECs were cultured in EGM-2 media (CC-3121) along with supplements (CC-4133), and PASMCs were cultured in SmGM-2 culture media (Lonza, CC-3182) at 5% CO2 in a humidified incubator.
as §5, §2
Flow cytometry detection of mitochondrial superoxide: For measuring mitochondrial superoxide, cells were incubated with 5 μM of MitoSOX Red mitochondrial superoxide indicator (Thermo Fisher Scientific) for 10 min in 37° C. CO2 incubator. Next, cells were washed with 1×PBS, trypsinized, and fluorescence (488 nm/580 nm) was measured on flow analyzer (BD LSR FORTESSA or BD LSRII) using BD […] software.

PAECs [4] = assay: Global transcriptome microarray in PAECs; assay type: cell-based, human; settings: IL-1β +/- I-BET762, microarray
Excerpt: The gene expression was normalized with Robust Multiarray Analysis (RMA). For BRD2889, the same approach was employed using Affymetrix Clariom S array on RNA isolated from PAECs treated with BRD2889 or vehicle and subjected to either hypoxia or normoxia. Differentially expressed genes were defined as any gene for which the FDR adjusted p-value was below 0.05 (n=3/grp). Reversed genes were further defined as those genes that were differentially expressed in both (hypoxia versus normoxia) and in (hypoxia+BRD2889 versus hypoxia)+vehicle as well as were regulated in opposite directions. Similarly, for I-BET that were differentially expressed in IL-1β+VC versus control and IL-1β+I-BET versus IL-1β+VC and were regulated in opposite directions. The data for both I-BET and BRD2889 have been submitted to the NCBI Gene Expression Omnibus with accession numbers GSE125508 and GSE160255, respectively.

[5] = tested on: SU5416-hypoxic pulmonary arterial hypertension rats; assay: SU5416-hypoxia pulmonary arterial hypertension rat model; assay type: in vivo, Sprague-Dawley rats
Method: Briefly, 10 week old male Sprague-Dawley rats were injected i.p. with 20 mg/kg of SU5416 (Sigma), placed in normobaric hypoxia (10% O2) for 3 weeks and then transferred to normoxia for 2 weeks. During hypoxic exposure, chambers were opened twice a week for cleaning and replenishment of food and water. […] For BRD2889 vs. vehicle control dosing, i.p. injections every 5 days (5 mg/kg) were administered during the final two weeks of normoxia. Oxygen concentrations were continuously monitored with blood gas analyzers.
Following euthanasia, right ventricle/[left ventricle+septum]
Measurement of GST activity: The GST activity from lung tissue and PAECs was assayed using GST assay kit (Cayman, MI, USA) per the manufacturer's instructions.
Rodent echocardiography: Echocardiography was performed using a 15-45 MHz transthoracic transducer and a Visual Sonics Vevo 3100 system (Fujifilm). Inhaled isoflurane anesthesia was used at 2% in 100% O2 during positioning and hair removal and then decreased to isoflurane 0.8% during imaging.

[6] = tested on: Cluster 15 (C15) genes incl. LGALS8; assay: RT-qPCR of Cluster 15 gene expression in PAECs; assay type: cell-based, human; settings: PAECs + IL-1β; for IL-1β-induced expression changes in Cluster 15 members SLC9A3R1, LGALS3: 500 nM
Method: as §5
(§7) RT-qPCR analysis: Cells were lysis in 1 ml of QiaZol reagent (Qiagen). Total RNA content was extracted using the RNeasy kit (Qiagen), according to the manufacturer's instructions. Total RNA concentration was determined using a BioTek Synergy multimode plate reader. Messenger RNAs were reverse transcribed to generate cDNA using the Multiscript RT kit (Thermo Fisher Scientific). cDNA for specific gene targets was amplified and quantified via fluorescently-labeled Taqman primer sets and Taqman fast advanced master mix (Thermo Fisher Scientific) using an Applied Biosystems QuantStudio 6 Flex Real-Time PCR System.

Cluster 15 (C15) genes = assay: RT-qPCR of Cluster 15 gene expression in PASMCs; assay type: cell-based, human; settings: PASMCs + IL-1β
Excerpt: as §6, §5
as §7, with “Total RNA content was extracted using the RNeasy kit (Qiagen), according to the manufacturer's instructions.” left out

PAECs [7] = assay: Apoptosis by caspase-3/7 activity in PAECs; assay type: cell-based, human
Excerpt: as §6, §5, §2, §3
Cellular apoptosis: Caspase-3/7 activity was quantified using the Caspase-Glo 3/7 Assay (Promega), according to manufacturer's instructions. Caspase-3/7 activity was normalized to total protein content determined by BCA method (Thermo Fisher Scientific).

[8] = I-BET762 30 mg/kg daily oral gavage, chronic hypoxia
[9] = PAECs + IL-1β 10 ng/ml 48 h, I-BET762 500 nM vs vehicle
[10] = PAECs, hypoxia 1% O2 24 h, I-BET pre-treatment
[11] = I-BET762 30 mg/kg i.p. daily, Days 21-35
[12] = IL-1β-exposed (48 h) PAECs treated with I-BET and rhGal8 (24 h)
[13] = PAECs, rhGal8 alone (30 nM, 24 h)

Chain of glutathione S-transferase pi 1 (GSTP1) (P09211 whole entry, species assumed): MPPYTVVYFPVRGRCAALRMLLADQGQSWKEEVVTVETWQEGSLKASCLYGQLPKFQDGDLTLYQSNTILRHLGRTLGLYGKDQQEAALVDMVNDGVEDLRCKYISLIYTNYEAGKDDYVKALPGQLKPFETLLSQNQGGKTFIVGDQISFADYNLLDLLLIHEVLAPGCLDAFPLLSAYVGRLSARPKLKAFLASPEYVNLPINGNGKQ

COc1cc(/C=C/C(=O)N2CCC=CC2=O)cc(OC)c1OC [piperlongumine, reference compound]
inhibition of GSTP1 [1]: reported to inhibit
toxicity to normal, non-transformed cells [2]: minimal toxicity

CC(C)C[C@@H](C=O)NC(=O)[C@H](CC(C)C)NC(=O)[C@H](CC(C)C)NC(=O)OCc1ccccc1 [MG132, reference compound] (Cbz-Leu-Leu-Leu-aldehyde)
GSTP1 or ISCU glutathionylation (glutathionylated ISCU): without affecting
ISCU protein (ISCU): reversed the hypoxic down-regulation

CCNC(=O)C[C@@H]1N=C(c2ccc(Cl)cc2)c2cc(OC)ccc2-n2c(C)nnc21 [I-BET762]
heart rate (chronically hypoxic mice; [8]): without significant effect
pulmonary vascular LGALS8, including in endothelial cells (chronically hypoxic mice; [8]): robustly decreased
pulmonary vascular muscularization (α-SMA stain) (chronically hypoxic mice; [8]): reduced
right ventricular systolic pressure (RVSP) (chronically hypoxic mice; [8]): reduced
downstream apoptosis (cleaved caspase-3) (chronically hypoxic mice; hypoxic mice, most notable at early stage (1 week hypoxia)): reduced downstream apoptosis
LGALS8 in normoxic mice (chronically hypoxic mice; normoxic mice, similar dosing, mean±SEM, vehicle 1±0.02, p=NS): 1.08±0.03 fold change
LGALS8-L protein (immunoblot) (LGALS8): reversed the IL-1β-induced increase of the L isoform
mitochondrial superoxide (O2-) levels (PAECs [3]; [9]): reduced the IL-1β-dependent increase
mitochondrial superoxide levels (PAECs [3]; [10]): reversed the hypoxia-induced increases
number of genes altered by IL-1β vs vehicle and reversed by drug (PAECs [4]): 524 genes
LGALS8 in pulmonary arterioles (immunofluorescence) [5, 11]: decreased
arteriolar muscularization [5, 11]: reduced
cleaved caspase-3 (CC-3) in pulmonary arterioles [5, 11]: decreased
right ventricular systolic pressure (RVSP) [5, 11]: reduced
left ventricular function (LVPW thickness, LVEF, LVFS; echocardiography) ([5]; I-BET762 vs vehicle): did not exhibit altered left ventricular function
LGALS8-L transcript [6]: reversed
LGALS8-M transcript [6]: not altered
IL-1β-induced expression changes in Cluster 15 members SLC9A3R1, LGALS3 [6]: reversed
expression of C15 genes LGALS3, LGALS8, ABCC4, CD47, SLC9A3R1, DAG1 ([6]; I-BET762 500 nM): reversed
extent of reversal of C15 genes LGALS3, LGALS8, DAG1, SLC9A3R1 ([6]; I-BET762 500 nM): near complete reversal
alteration and reversal of C15 genes including LGALS8 (Cluster 15 (C15) genes): not observed
apoptosis (caspase-3/7 activity) (PAECs [7]; [9]): reduced the IL-1β-dependent increase
apoptosis (caspase-3/7 activity) (PAECs [7]; [10]): reversed the hypoxia-induced increases

COc1cc2c(cc1-c1c(C)noc1C)ncc1[nH]c(=O)n([C@H](C)c3ccccn3)c12 [I-BET151]
IL-1β-induced expression changes in Cluster 15 members SLC9A3R1, LGALS3 [6]: reversed

B1: rhGal8: recombinant human galectin-8 (R&D Systems 1305-GA-050) (protein, UniProt O00214 1-317, looked up)
Galectin-8: MMLSLNNLQNIIYNPVIPFVGTIPDQLDPGTLIVIRGHVPSDADRFQVDLQNGSSMKPRADVAFHFNPRFKRAGCIVCNTLINEKWGREEITYDTPFKREKSFEIVIMVLKDKFQVAVNGKHTLLYGHRIGPEKIDTLGIYGKVNIHSIGFSFSSDLQSTQASSLELTEISRENVPKSGTPQLRLPFAARLNTPMGPGRTVVVKGEVNANAKSFNVDLLAGKSKDIALHLNPRLNIKAFVRNSFLQESWGEEERNITSFPFSPGMYFEMIIYCDVREFKVAVNGVHSLEYKHRFKELSSIDTLEINGDIHLLEVRSW
I-BET-induced attenuation of IL-1β-specific mitochondrial superoxide (PAECs [3]; [12]): reduced the ability of I-BET to decrease
mitochondrial superoxide (PAECs [3]; [13]): no effect
I-BET-induced attenuation of IL-1β-specific apoptosis (caspase 3/7) (PAECs [7]; [12]): reduced the ability of I-BET to decrease
apoptosis (caspase 3/7 activity) (PAECs [7]; [13]): no effect
